Data: ChEMBL document CHEMBL3994611, “Synthesis and biological evaluation of deferiprone-resveratrol hybrids as antioxidants, Aβ1-42 aggregation inhibitors and metal-chelating agents for Alzheimer's disease” (Eur J Med Chem, 2017)
pIC50: −log10 of the molar value. Calls of active or inactive are those of the source. No cut-off for these calls is given here.

Key:
[1] = Binding affinity to CP645 probe-labeled Fe3+ in DMSO/MOPS buffer assessed as concentration of free Fe3+ in solution at 60 uM after 48 hrs by spectrofluorophotometric method
[2] = Binding affinity to Fe3+ assessed as cumulative stability constant
[3] = Binding affinity to Zn2+ assessed as cumulative stability constant
[4] = Binding affinity to Cu2+ assessed as cumulative stability constant
[5] = Antioxidant activity assessed as ABTS radical scavenging activity incubated for 10 mins under dark condition; format: functional
[6] = biological target: T1, Amyloid-beta precursor protein (Homo sapiens, UniProt P05067); assay: Inhibition of HFIP-pretreated amyloid beta (1 to 42) (unknown origin) self-induced aggregation incubated for 24 hrs under dark condition by thioflavin-T based fluorometric assay
[7] = biological target: T1, Amyloid-beta precursor protein; assay: Inhibition of HFIP-pretreated amyloid beta (1 to 42) (unknown origin) self-induced aggregation at 20 uM incubated for 24 hrs under dark condition by thioflavin-T based fluorometric assay relative to control
[8] = (§1) Binding affinity to Fe3+ assessed as disaggregation of Fe3+-induced amyloid beta (1 to 42) aggregation by measuring Fe3+-amyloid beta (1 to 42) complex fluorescence at 50 uM treated 24 hrs after Fe3+ addition measured after 24 hrs incubation under dark condition by thioflavin-T based fluorometric assay relative to control
[9] = Binding affinity to Cu2+ assessed as inhibition of Cu2+-induced amyloid beta (1 to 42) aggregation by measuring Cu2+-amyloid beta (1 to 42) complex fluorescence at 75 uM incubated for 24 hrs under dark condition by thioflavin-T based fluorometric assay relative to control; design: scale not given: the % may be the effect or the level left
[10] = as §1, with “Cu2+” for “Fe3+”, “Cu2+-induced” for “Fe3+-induced”, “Cu2+-amyloid” for “Fe3+-amyloid”, “75” for “50”
[11] = Binding affinity to Cu2+ assessed as disaggregation of Cu2+-induced amyloid beta (1 to 42) aggregation at 75 uM incubated for 24 hrs under dark condition by uranyl acetate staining based transmission electron microscopic method
[12] = Binding affinity to Fe3+ assessed as inhibition of Fe3+-induced amyloid beta (1 to 42) aggregation by measuring Fe3+-amyloid beta (1 to 42) complex fluorescence at 50 uM incubated for 24 hrs under dark condition by thioflavin-T based fluorometric assay relative to control; design: scale not given: the % may be the effect or the level left
[13] = Binding affinity to Fe3+ assessed as disaggregation of Fe3+-induced amyloid beta (1 to 42) aggregation at 50 uM incubated for 24 hrs under dark condition by uranyl acetate staining based transmission electron microscopic method
[14] = Binding affinity to Cu2+ assessed as inhibition of Cu2+-induced amyloid beta (1 to 42) aggregation at 75 uM incubated for 24 hrs under dark condition by uranyl acetate staining based transmission electron microscopic method
[15] = Binding affinity to Fe3+ in DMSO/MOPS buffer assessed as maximal absorbance intensity at iron to ligand ratio of 1:4 by UV-visible spectrophotometric method
[16] = Binding affinity to Fe3+ assessed as inhibition of Fe3+-induced amyloid beta (1 to 42) aggregation at 50 uM incubated for 24 hrs under dark condition by uranyl acetate staining based transmission electron microscopic method

T1 sequence (P05067 whole entry): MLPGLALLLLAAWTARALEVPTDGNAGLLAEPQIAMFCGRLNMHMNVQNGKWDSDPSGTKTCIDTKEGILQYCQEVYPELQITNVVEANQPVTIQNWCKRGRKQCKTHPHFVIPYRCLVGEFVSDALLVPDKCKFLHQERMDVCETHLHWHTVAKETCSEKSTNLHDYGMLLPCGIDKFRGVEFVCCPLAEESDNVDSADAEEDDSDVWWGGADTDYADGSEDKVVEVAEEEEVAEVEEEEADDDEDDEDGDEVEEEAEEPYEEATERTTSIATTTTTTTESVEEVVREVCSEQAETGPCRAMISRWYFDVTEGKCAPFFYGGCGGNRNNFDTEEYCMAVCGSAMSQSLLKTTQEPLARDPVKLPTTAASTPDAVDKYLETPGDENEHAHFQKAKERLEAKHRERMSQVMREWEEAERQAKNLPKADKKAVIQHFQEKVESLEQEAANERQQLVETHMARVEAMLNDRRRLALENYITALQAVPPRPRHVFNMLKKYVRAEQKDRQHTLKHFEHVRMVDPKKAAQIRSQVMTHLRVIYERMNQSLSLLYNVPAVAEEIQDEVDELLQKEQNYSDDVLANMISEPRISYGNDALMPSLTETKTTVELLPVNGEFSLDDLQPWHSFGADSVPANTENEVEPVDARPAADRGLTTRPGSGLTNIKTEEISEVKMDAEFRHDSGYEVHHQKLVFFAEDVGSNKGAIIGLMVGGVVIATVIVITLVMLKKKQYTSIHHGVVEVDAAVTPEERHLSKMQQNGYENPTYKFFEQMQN

SMILES | log free Fe3+ concentration [1] | pIC50 [5] | pIC50 [6] | inhibition [7] [%] | further results
Cc1c(O)c(=O)ccn1C | -20.6 | – | – | – | K [2]: 37.2; K [3]: 13.5; K [4]: 21.7
CCOc1ccc(/C=C/c2cc(=O)c(O)c[nH]2)cc1 | -20.1 | 5.09 | 4.63 | 51.5 | –
O=c1cc(/C=C/c2ccc([N+](=O)[O-])cc2)[nH]cc1O | -19.5 | 5.32 | – | – | –
COc1ccccc1/C=C/c1cc(=O)c(O)cn1C | -20.6 | 5.38 | 4.90 | 56.8 | –
Cn1cc(O)c(=O)cc1/C=C/c1ccccc1O | -20.3 | 5.74 | – | 31.1 | –
Oc1ccc(/C=C/c2cc(O)cc(O)c2)cc1 [RESVERATROL] | – | 6.12 | – | – | Activity [8]: 58%; Activity [9]: 86%; Activity [10]: 35%; Activity [11]: Active; Activity [12]: 87%; Activity [13]: Active
O=c1cc(/C=C/c2ccccc2)[nH]cc1O | -21 | 5.39 | – | 38.2 | –
Cn1cc(O)c(=O)cc1/C=C/c1ccc(O)cc1 | -20.1 | 5.86 | 4.81 | 52.5 | –
O=c1cc(/C=C/c2cc(O)cc(O)c2)[nH]cc1O | -19.2 | 6.06 | – | 18.2 | –
O=c1cc(/C=C/c2ccc(O)cc2)[nH]cc1O | -19.6 | 5.76 | 4.97 | 58.4 | Activity [8]: 25%; Activity [9]: 65%; Activity [10]: 69%; Activity [14]: Active; Activity [11]: Active; Activity [12]: 62%; Activity [15]: Active; Activity [13]: Active; Activity [16]: Active
O=c1cc(/C=C/c2ccc(Cl)cc2)[nH]cc1O | -19.5 | 4.94 | – | 11.6 | –
COc1cc(/C=C/c2cc(=O)c(O)c[nH]2)cc(OC)c1 | -21.6 | 4.94 | – | 35.3 | –
Cn1cc(O)c(=O)cc1/C=C/c1ccc([N+](=O)[O-])cc1 | -18.4 | 4.72 | – | – | –
Cn1cc(O)c(=O)cc1/C=C/c1cccc(F)c1 | -20.1 | 5.88 | 4.71 | 52.4 | –
Cn1cc(O)c(=O)cc1/C=C/c1cc(O)cc(O)c1 | -20.1 | 5.92 | – | 22.4 | –
CN(C)c1ccc(/C=C/c2cc(=O)c(O)c[nH]2)cc1 | -20.1 | 5.47 | 4.53 | 49.6 | –
Cn1cc(O)c(=O)cc1/C=C/c1ccc(Cl)cc1 | -20.8 | 5.24 | – | 14.5 | –
Cc1c(C)c2c(c(C)c1O)CCC(C)(C(=O)O)O2 (stereo not drawn) [TROLOX] | – | 5.41 | – | – | –
CCOc1ccc(/C=C/c2cc(=O)c(O)cn2C)cc1 | -19 | 5.40 | 5.05 | 65.3 | Activity [8]: 16%; Activity [9]: 57%; Activity [10]: 47%; Activity [14]: Active; Activity [11]: Active; Activity [12]: 64%; Activity [13]: Active; Activity [16]: Active
COc1cc(/C=C/c2cc(=O)c(O)cn2C)cc(OC)c1 | -21.2 | 5.43 | – | 28.3 | –
COc1ccccc1/C=C/c1cc(=O)c(O)c[nH]1 | -20.2 | 5.17 | 4.78 | 54.9 | –
CN(C)c1ccc(/C=C/c2cc(=O)c(O)cn2C)cc1 | -19.2 | 5.60 | – | 44.9 | –
O=c1cc(/C=C/c2cccc(F)c2)[nH]cc1O | -20.2 | 5.20 | 4.72 | 53.2 | –
O=c1cc(/C=C/c2ccccc2O)[nH]cc1O | -20.2 | 5.66 | 4.66 | 49.3 | –
Cn1cc(O)c(=O)cc1/C=C/c1ccccc1 | -19.8 | 5.68 | – | 21.6 | –
